Assay results: ChEMBL document CHEMBL4196088, “Induction of cell killing and autophagy by amphiphilic pyrrolidine derivatives on human pancreatic cancer cells” (Eur J Med Chem, 2018)

How the values were obtained:
MIA PaCa-2 = assay: Growth inhibition of human MIAPaCa2 cells after 72 hrs by MTT assay; format: functional, cell-based; settings: MIA PaCa-2, 72 h
PK9 = assay: Growth inhibition of human PK9 cells after 72 hrs by MTT assay; format: functional, cell-based; settings: PK9, 72 h
PANC-1 [1] = assay: Growth inhibition of human PANC1 cells after 72 hrs by XTT assay; format: functional, cell-based; settings: PANC-1, 72 h
HeLa = assay: Growth inhibition of human HeLa cells after 72 hrs; format: functional, cell-based
BXPC-3 = assay: Growth inhibition of human BxPC3 cells after 72 hrs by XTT assay; format: functional, cell-based; settings: BXPC-3, 72 h
PANC-1 [2] = assay: Induction of apoptosis in human PANC1 cells assessed as accumulation at sub-G0/G1 phase at 10 uM after 24 hrs by propidium iodide staining based flow cytometry (reference value: 0.6 to 0.7%); format: functional
PANC-1 [3] = assay: Induction of apoptosis in human PANC1 cells assessed as accumulation at sub-G0/G1 phase at 20 uM after 24 hrs by propidium iodide staining based flow cytometry (reference value: 0.6 to 0.7%); format: functional
PANC-1 [4] = assay: Induction of apoptosis in human PANC1 cells assessed as accumulation at sub-G0/G1 phase at 10 uM after 72 hrs by propidium iodide staining based flow cytometry (reference value: 1.6 to 3.2%); format: functional
PANC-1 [5] = assay: Induction of apoptosis in human PANC1 cells assessed as accumulation at sub-G0/G1 phase at 20 uM after 72 hrs by propidium iodide staining based flow cytometry (reference value: 1.6 to 3.2%); format: functional
PANC-1 [6] = assay: Induction of apoptosis in human PANC1 cells assessed as accumulation at sub-G0/G1 phase at 10 uM after 48 hrs by propidium iodide staining based flow cytometry (reference value: 0.2 to 2.9%); format: functional
PANC-1 [7] = assay: Induction of apoptosis in human PANC1 cells assessed as accumulation at sub-G0/G1 phase at 20 uM after 48 hrs by propidium iodide staining based flow cytometry (reference value: 0.2 to 2.9%); format: functional

IC50 (MIA PaCa-2) [µM]	IC50 (PANC-1 [1]) [µM]	IC50 (BXPC-3) [µM]	SMILES	IC50 (PK9) [µM]	further results
59.6	> 100		CC(C)(C)OC(=O)N1CCC[C@H]1COCCCCCCCCC/C=C/c1ccc(Oc2ccccc2)cc1	> 100	
3.7	5.3	5.3	C(=C\c1ccc(-c2ccccc2)cc1)/CCCCCCCCOC[C@@H]1CCCN1.Cl	3.9	Activity (PANC-1 [2]): 1%; Activity (PANC-1 [3]): 0.9%; Activity (PANC-1 [4]): 12.2%; Activity (PANC-1 [5]): 10.6%; Activity (PANC-1 [6]): 2.3%; Activity (PANC-1 [7]): 3.2%
	70	56.7	CC(=O)N1CCC[C@H]1COCCCCCCCCC/C=C/c1ccc(-c2ccccc2)cc1		
> 100	> 100	> 100	CCCCCCCC/C=C/CCCCCCCCOC[C@@H]1CCCN1C(=O)OC(C)(C)C	> 100	
	> 100	> 100	CC(C)(C)OC(=O)NCC(=O)N1CCC[C@H]1COCCCCCCCCC/C=C\c1ccc(Oc2ccccc2)cc1		
	66.7	66.7	CC(C)(C)OC(=O)NCC(=O)N1CCC[C@H]1COCCCCCC/C=C/c1ccc(-c2ccccc2)cc1		
69.2	90	70	CC(C)(C)OC(=O)N1CCC[C@H]1COCCCCCCCC/C=C/c1ccc(-c2ccccc2)cc1	> 100	
47.1	56.7	53.3	C=CCCCCCCOC[C@@H]1CCCN1C(=O)OC(C)(C)C	57.1	
	65	50	CC(=O)N1CCC[C@H]1COCCCCCC/C=C/c1ccc(-c2ccccc2)cc1		
	60	50	Cc1ccc([S+]([O-])N2CCC[C@H]2COCCCCCC/C=C/c2ccc(Oc3ccccc3)cc2)cc1 (some centres undefined)		
2.9	5.3	5.7	C(=C\c1ccc(-c2ccccc2)cc1)/CCCCCCOC[C@@H]1CCCN1.Cl	3.2	Activity (PANC-1 [2]): 0.9%; Activity (PANC-1 [3]): 2.3%; Activity (PANC-1 [4]): 4.7%; Activity (PANC-1 [5]): 4.3%; Activity (PANC-1 [6]): 1.6%; Activity (PANC-1 [7]): 2.1%
7.4	30	49.7	C(=C\c1ccc(Oc2ccccc2)cc1)/CCCCCCOC[C@@H]1CCCN1	11.4	
	56.7	50	C=CCCCCCCCCCOC[C@@H]1CCCN1[S+]([O-])c1ccc(C)cc1 (some centres undefined)		
23	> 100	> 100	CC(C)(C)OC(=O)N1CCC[C@H]1COCCCCCC/C=C/c1ccc(-c2ccccc2)cc1	> 100	
	> 100	> 100	CCCCCCCC/C=C\CCCCCCCCOC[C@@H]1CCCN1C(=O)[C@@H]1CCCN1C(=O)OC(C)(C)C		
	> 100	> 100	CCCCCCCC/C=C\CCCCCCCCOC[C@@H]1CCCN1[S+]([O-])c1ccc(C)cc1 (some centres undefined)		
	50	53.3	O=CN1CCC[C@H]1COCCCCCC/C=C/c1ccc(-c2ccccc2)cc1		
> 100	80	> 100	CCCCCCCC/C=C\CCCCCCCCOC[C@@H]1CCCN1C(=O)OC(C)(C)C	> 100	
17.1	50	6.3	C=CCCCCCCCCCOC[C@@H]1CCCN1	18.9	
	56.7	66.7	O=CN1CCC[C@H]1COCCCCCCCCC/C=C/c1ccc(-c2ccccc2)cc1		
	63.3	80	CC(C)(C)OC(=O)NCC(=O)N1CCC[C@H]1COCCCCCC/C=C/c1ccc(Oc2ccccc2)cc1		
	63.3	65	O=CN1CCC[C@H]1COCCCCCCCCC/C=C/c1ccc(Oc2ccccc2)cc1		
	65	73.3	CC(=O)N1CCC[C@H]1COCCCCCCCCC/C=C/c1ccc(Oc2ccccc2)cc1		

The next lines start with the compound.

SMILES	IC50 (MIA PaCa-2) [µM]	IC50 (PANC-1 [1]) [µM]	IC50 (BXPC-3) [µM]	IC50 (PK9) [µM]	further results
C=CCCCCCCOC[C@@H]1C[C@@H](O)CN1					IC50 (HeLa): > 100 µM
C=CCCCCCCCCCOC[C@@H]1C[C@@H](O)CN1					IC50 (HeLa): 39 µM
CCCCCCCC/C=C\CCCCCCCCOC[C@@H]1CCCN1.Cl	5.4	4.7	5.3	6.5	Activity (PANC-1 [2]): 2.4%; Activity (PANC-1 [3]): 2.2%; Activity (PANC-1 [4]): 14.4%; Activity (PANC-1 [5]): 14.1%; Activity (PANC-1 [6]): 4.6%; Activity (PANC-1 [7]): 2.3%
C=CCCCCCCOC[C@@H]1CCCN1[S+]([O-])c1ccc(C)cc1 (some centres undefined)		53.3	50		
CCCCCCCC/C=C\CCCCCCCCOC[C@@H]1C[C@@H](O)CN1C(=O)OC(C)(C)C					IC50 (HeLa): 40 µM
CC(C)(C)OC(=O)N1C[C@H](O)C[C@H]1COCCCCCCCC/C=C/c1ccc(-c2ccccc2)cc1					IC50 (HeLa): 37.5 µM
CC(C)(C)OC(=O)N1C[C@H](O)C[C@H]1COCCCCCCCC/C=C/c1ccc(Oc2ccccc2)cc1					IC50 (HeLa): 41 µM
CCCCCCCC/C=C/CCCCCCCCOC[C@@H]1C[C@@H](O)CN1					IC50 (HeLa): 4 µM
C=CCCCCCCOC[C@@H]1CCCN1	72.9	> 100	> 100	57.7	
CC(C)(C)OC(=O)N1C[C@H](O)C[C@H]1COCCCCCC/C=C/c1ccc(Oc2ccccc2)cc1					IC50 (HeLa): 41 µM
C=CCCCCCCCCCOC[C@@H]1CCCN1C(=O)OC(C)(C)C	50.3	≥ 100	50	> 100	
C=CCCCCCCOC[C@@H]1C[C@@H](O)CN1C(=O)OC(C)(C)C					IC50 (HeLa): 23 µM
CCCCCCCC/C=C/CCCCCCCCOC[C@@H]1C[C@@H](O)CN1C(=O)OC(C)(C)C					IC50 (HeLa): 29.5 µM
CC(C)(C)OC(=O)N1C[C@H](O)C[C@H]1COCCCCCCCCC/C=C/c1ccc(-c2ccccc2)cc1					IC50 (HeLa): 36.5 µM
C=CCCCCCCCCCOC[C@@H]1C[C@@H](O)CN1C(=O)OC(C)(C)C					IC50 (HeLa): 39 µM
CCCCCCCC/C=C/CCCCCCCCOC[C@@H]1CCCN1.Cl	4.2	5.3	5.3	9.2	Activity (PANC-1 [2]): 1.6%; Activity (PANC-1 [3]): 1.2%; Activity (PANC-1 [4]): 8%; Activity (PANC-1 [5]): 2.5%; Activity (PANC-1 [6]): 2.6%; Activity (PANC-1 [7]): 5.3%
Cc1ccc([S+]([O-])N2CCC[C@H]2COCCCCCC/C=C/c2ccc(-c3ccccc3)cc2)cc1 (some centres undefined)		≥ 100	≥ 100		

SMILES	IC50 (MIA PaCa-2) [µM]	IC50 (PANC-1 [1]) [µM]	IC50 (BXPC-3) [µM]	IC50 (PK9) [µM]	further results
CC(C)(C)OC(=O)N1CCC[C@H]1COCCCCCCCC/C=C/c1ccc(Oc2ccccc2)cc1	> 100	90	> 100	> 100	
C(=C\c1ccc(-c2ccccc2)cc1)/CCCCCCCCCOC[C@@H]1CCCN1.Cl	8.3	7.3	7	5.5	Activity (PANC-1 [2]): 1.6%; Activity (PANC-1 [3]): 7%; Activity (PANC-1 [4]): 8.4%; Activity (PANC-1 [5]): 11.6%; Activity (PANC-1 [6]): 1.9%; Activity (PANC-1 [7]): 2.2%
CC(C)(C)OC(=O)N1C[C@H](O)C[C@H]1COCCCCCCCCC/C=C/c1ccc(Oc2ccccc2)cc1					IC50 (HeLa): 45.9 µM
O=CN1CCC[C@H]1COCCCCCC/C=C/c1ccc(Oc2ccccc2)cc1		53.3	46.7		
CC(C)(C)OC(=O)N1C[C@H](O)C[C@H]1COCCCCCC/C=C/c1ccc(-c2ccccc2)cc1					IC50 (HeLa): 38.5 µM
O[C@H]1CN[C@H](COCCCCCCCC/C=C/c2ccc(-c3ccccc3)cc2)C1					IC50 (HeLa): 3.9 µM
CC(C)(C)OC(=O)N1CCC[C@H]1COCCCCCC/C=C/c1ccc(Oc2ccccc2)cc1	8.5	63.3	63.3	69.5	
Cc1ccc([S+]([O-])N2CCC[C@H]2COCCCCCCCCC/C=C/c2ccc(Oc3ccccc3)cc2)cc1 (some centres undefined)		> 100			
CC(C)(C)OC(=O)N1CCC[C@H]1COCCCCCCCCC/C=C/c1ccc(-c2ccccc2)cc1	57.4	80	60	> 100	
Cc1ccc([S+]([O-])N2CCC[C@H]2COCCCCCCCCC/C=C/c2ccc(-c3ccccc3)cc2)cc1 (some centres undefined)		> 100	> 100		
CC(C)(C)OC(=O)NCC(=O)N1CCC[C@H]1COCCCCCCCCC/C=C/c1ccc(-c2ccccc2)cc1		> 100	> 100		
CC(=O)N1CCC[C@H]1COCCCCCC/C=C/c1ccc(Oc2ccccc2)cc1		40	60		
C(=C\c1ccc(Oc2ccccc2)cc1)/CCCCCCCCCOC[C@@H]1CCCN1	19.3	60	56.7	20.7	
C(=C\c1ccc(Oc2ccccc2)cc1)/CCCCCCCCOC[C@@H]1CCCN1	18.3	50	43.3	20.8	
CCCCCCCC/C=C\CCCCCCCCOC[C@@H]1C[C@@H](O)CN1					IC50 (HeLa): 3.9 µM
O[C@H]1CN[C@H](COCCCCCC/C=C/c2ccc(Oc3ccccc3)cc2)C1					IC50 (HeLa): 5.1 µM
